In patent US7947736B2, “Oligomeric compounds” (BTG International Limited, priority 2004, dated 2011):

Assays:
[1] = Ketogenic activity after oral administration: plasma β-hydroxybutyrate in rats (Ranbut assay); conditions: 300 mg/kg po; for maximum increase of plasma concentration of β-hydroxybutyrate: male Sprague-Dawley rats, versus baseline (T=0)
Method: Male Sprague-Dawley rats (weight range 200-250 g; Clarles River, Margate, Kent) were used. The rats were group-housed in polypropylene cages at a temperature of 21±4° C., 55±20% humidity on a standard 12 hour light/dark cycle (lights on at 6.00 am). […] Animals were acclimatized to these conditions for at least one week before experimentation.
The sodium salt of D-β-hydroxybutyrate monomer (KTX 0101) was used as a comparator for assessing the bioavailability of the oligomeric compounds described here. […] Control animals received the appropriate vehicle (deionized water at 1 ml/kg) via the same route.
In Protocol A, blood (approx […]) was collected by cardiac puncture at 15, 30 and 60 minutes after dosing. In Protocol B, blood (approx 5 ml) was collected by cardiac puncture at 30, 120 and 240 minutes after dosing. In Protocol E, blood (approx 5 ml) was collected by cardiac puncture at 120 and 240 minutes after dosing. Animals were killed by CO2 asphyxiation and blood collected by cardiac puncture. Blood was placed into EDTA-coated plasma collection tubes (Sarstedt 5 ml K2E tubes) and kept on ice prior to centrifugation. Tubes were centrifuged in an Eppendorf 570R centrifuge at 4° C. for 5 minutes at 2500 rpm (1000 g). Plasma samples were initially frozen on dry ice and transferred to a −75° C. freezer until required for analysis.
Commercial clinical assay kits (Ranbut) for the determination of D-β-hydroxybutyrate were obtained from Randox Laboratories (Antrim, UK). The kit quantified NADH via the activity of β-hydroxybutyrate dehydrogenase measured as an increase in OD340 nm. An alkaline pH is necessary to drive the reaction equilibrium towards the production of NADH and acetoacetate.
This spectrophotometric assay was modified for application to a 96-well microplate format. The reaction rate was then determined from the increase in OD340 nm over a 1 minute time-course, after allowing a necessary period for the reaction rate to settle.

[2] = Ketogenic activity after intravenous injection: plasma β-hydroxybutyrate in rats (Ranbut assay); assay type: in vivo, rat; conditions: 300 mg/kg iv; for plasma concentration of β-hydroxybutyrate (increase to): 15 min after injection
Method: Male Sprague-Dawley rats (weight range 200-250 g) were obtained from Charles River, Margate, Kent.
The compounds were infused via the tail vein at 300 mg/kg (1 ml/kg) over a period of 1 to 2 min.
Animals were killed 15 min later by CO2 asphyxiation and blood was collected by cardiac puncture.

[3] = Dissolution in deionized water / water solubility; assay type: physicochemical; conditions: dissolved at 300 mg/ml in deionized water (KTX 0202: 300 mg/kg [sic])

C[C@@H]1CC(=O)O[C@H](C)CC(=O)O[C@H](C)CC(=O)O1 [(R)-3-β-hydroxybutyrate triolide, reference compound]
maximum increase of plasma concentration of β-hydroxybutyrate [1]: 0.5 mM | magnitude of increase in plasma β-hydroxybutyrate compared with KTX 0101 ([1]; rats): at least as great as that evoked by oral administration of the equivalent dose of KTX 0101

C[C@@H](O)CC(=O)[O-].[Na+] [KTX 0101, sodium D-β-hydroxybutyrate, reference compound]
maximum increase of plasma concentration of β-hydroxybutyrate [1]: 0.4 mM | time at which plasma β-hydroxybutyrate was still significantly elevated ([1]; rats): 1 h | time at which the maximum increase of plasma β-hydroxybutyrate was observed ([1]; rats): 15 min | time by which plasma β-hydroxybutyrate returned to control values ([1]; rats): ≤ 2 h | time until which plasma β-hydroxybutyrate plateaued at the maximum level ([1]; rats): 30 min | plasma concentration of β-hydroxybutyrate (increase to) [2]: 1.0 mM | appearance of the solution [3]: clear solution | pH of the solution [3]: 7.0

1-3 butandiol, di-(tri(R)-3-hydroxybutyrate)ester [KTX 0203]
maximum increase of plasma concentration of β-hydroxybutyrate [1]: 0.4 mM | magnitude of increase in plasma β-hydroxybutyrate compared with KTX 0101 ([1]; rats): at least as great as those produced by KTX 0101

CC(O)CCOC(=O)C[C@@H](C)OC(=O)C[C@@H](C)OC(=O)C[C@@H](C)O (stereo partly drawn) [KTX 0202, 1-(tri(R)-3-hydroxybutyryl-butane-1,3-diol) ester]
maximum increase of plasma concentration of β-hydroxybutyrate [1]: 0.4 mM | biological half-life relative to KTX 0101 ([1]; rats): improved biological half-life relative to KTX 0101 | magnitude of increase in plasma β-hydroxybutyrate compared with KTX 0101 ([1]; rats): at least as great as those produced by KTX 0101 | oral bioavailability ([1]; rats): orally bioavailable | time at which plasma β-hydroxybutyrate was still significantly elevated ([1]; rats): 2 h | time at which the maximum increase of plasma β-hydroxybutyrate was observed ([1]; rats): 30 min | time by which plasma β-hydroxybutyrate returned to control values ([1]; rats): ≤ 4 h | bioavailability by the intravenous route [2]: bioavailable when injected via the intravenous route | increase of plasma β-hydroxybutyrate at 15 min, more than KTX 0101 ([2]; 15 min): 60% | plasma concentration of β-hydroxybutyrate (increase to) [2]: 1.7 mM | appearance of the solution [3]: slightly opaque solution | pH of the solution [3]: 6.0
